Values joined by “and” are separate entries in the source; they are usually repeats but may differ in a detail not shown here. Equal entries are not always repeated. Where two headings read alike, the source gives them in different places.

What is called IC50 is the concentration that inhibits the measured activity by half.

Common to all, as to type: biochemical
Assay [1] concerns the target T1, recombinant 5-LOX (Homo sapiens, UniProt P09917).
T1 sequence (P09917 1-674): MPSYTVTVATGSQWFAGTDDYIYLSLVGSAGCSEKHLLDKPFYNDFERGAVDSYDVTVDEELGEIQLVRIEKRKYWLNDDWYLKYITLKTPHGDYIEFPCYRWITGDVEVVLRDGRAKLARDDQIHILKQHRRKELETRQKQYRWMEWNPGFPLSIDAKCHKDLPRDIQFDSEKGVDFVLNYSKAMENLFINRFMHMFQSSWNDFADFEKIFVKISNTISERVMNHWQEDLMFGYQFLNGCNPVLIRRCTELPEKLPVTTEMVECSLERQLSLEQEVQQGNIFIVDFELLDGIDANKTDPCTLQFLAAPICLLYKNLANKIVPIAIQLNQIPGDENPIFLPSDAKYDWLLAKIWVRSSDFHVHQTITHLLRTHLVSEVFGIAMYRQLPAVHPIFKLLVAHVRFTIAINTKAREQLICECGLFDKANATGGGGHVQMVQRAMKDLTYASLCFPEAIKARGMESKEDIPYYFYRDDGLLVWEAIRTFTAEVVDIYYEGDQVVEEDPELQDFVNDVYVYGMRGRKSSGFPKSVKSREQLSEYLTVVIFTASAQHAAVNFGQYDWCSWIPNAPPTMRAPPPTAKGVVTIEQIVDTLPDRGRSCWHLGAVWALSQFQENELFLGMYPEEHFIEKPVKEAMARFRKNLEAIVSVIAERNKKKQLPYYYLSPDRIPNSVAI
Description: 5-LOX fluorescent assay. The following applies: several values in one cell = repeat determinations; read-out: IC50 (μM) values for in vitro lipoxygenase inhibition, 5-LOX. The method, boiled down:
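Lysate containing recombinant 5-LOX was pre-incubated 15 min with compounds in 50 mM Tris pH 7.5, 0.1 mM EDTA, 0.3 mM CaCl2. The reaction was started with 20 μM arachidonic acid, 100 μM ATP and 1 μM DHR123.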

Assay [2] deals with T2, recombinant 12-LOX enzyme (Homo sapiens, UniProt P18054).
T2 sequence (P18054 1-663): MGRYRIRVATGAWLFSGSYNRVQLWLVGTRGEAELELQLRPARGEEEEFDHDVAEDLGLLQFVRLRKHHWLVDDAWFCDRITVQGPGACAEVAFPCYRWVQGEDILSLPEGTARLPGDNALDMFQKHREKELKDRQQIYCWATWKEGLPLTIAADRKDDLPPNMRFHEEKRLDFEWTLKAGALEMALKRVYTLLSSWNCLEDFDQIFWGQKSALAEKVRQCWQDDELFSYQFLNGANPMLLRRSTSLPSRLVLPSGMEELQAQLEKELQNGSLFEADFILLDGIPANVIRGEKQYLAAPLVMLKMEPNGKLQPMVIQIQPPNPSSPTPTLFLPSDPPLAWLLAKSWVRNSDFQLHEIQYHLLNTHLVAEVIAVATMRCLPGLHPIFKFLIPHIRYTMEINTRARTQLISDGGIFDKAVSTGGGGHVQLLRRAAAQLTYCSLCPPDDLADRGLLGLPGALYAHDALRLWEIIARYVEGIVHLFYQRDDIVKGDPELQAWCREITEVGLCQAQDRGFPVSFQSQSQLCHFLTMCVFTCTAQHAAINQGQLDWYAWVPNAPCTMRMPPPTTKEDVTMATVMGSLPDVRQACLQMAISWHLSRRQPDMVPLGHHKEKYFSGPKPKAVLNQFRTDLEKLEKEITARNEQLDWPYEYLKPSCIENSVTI
Put plainly: 12-LOX fluorescent assay. The following applies: several values in one cell = repeat determinations; read-out: IC50 (μM) values for in vitro lipoxygenase inhibition, 12-LOX. The method in brief:
(§1)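 Compounds pre-incubated 15 min with 100 nM 12-LOX or 50 nM 15-LOX in 50 mM Tris pH 7.5, 0.05% Tween-20; reaction started with 20 μM AA/LA plus 1 μM DHR123.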

In assay [3] the target is T3, recombinant 15-LOX enzyme (Homo sapiens, UniProt P16050).
T3 sequence (P16050 1-662): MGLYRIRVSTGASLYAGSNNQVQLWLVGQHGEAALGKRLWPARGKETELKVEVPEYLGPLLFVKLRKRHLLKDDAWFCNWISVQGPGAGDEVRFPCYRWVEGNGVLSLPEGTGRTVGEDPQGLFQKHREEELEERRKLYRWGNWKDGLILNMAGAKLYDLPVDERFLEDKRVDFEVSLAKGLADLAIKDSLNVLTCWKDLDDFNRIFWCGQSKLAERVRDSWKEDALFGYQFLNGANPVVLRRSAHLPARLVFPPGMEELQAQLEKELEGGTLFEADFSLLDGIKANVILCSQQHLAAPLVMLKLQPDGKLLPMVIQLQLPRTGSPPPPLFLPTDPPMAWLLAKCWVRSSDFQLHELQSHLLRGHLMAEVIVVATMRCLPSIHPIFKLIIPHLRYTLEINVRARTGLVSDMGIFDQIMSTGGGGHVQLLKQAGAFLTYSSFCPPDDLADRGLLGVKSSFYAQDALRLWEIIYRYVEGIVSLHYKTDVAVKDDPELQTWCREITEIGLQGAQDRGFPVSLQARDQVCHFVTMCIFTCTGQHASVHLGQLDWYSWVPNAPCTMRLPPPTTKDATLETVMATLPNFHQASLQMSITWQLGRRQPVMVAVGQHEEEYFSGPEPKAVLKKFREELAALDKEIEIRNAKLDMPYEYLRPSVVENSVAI
Put plainly: 15-LOX fluorescent assay. The following applies: several values in one cell = repeat determinations. The method in brief:
as §1

The mark [4] stands for this setting: IC50 (μM) values for in vitro lipoxygenase inhibition, 15-LOX.
The mark [5] stands for this setting: read-out: IC50 (μM) values for in vitro lipoxygenase inhibition, 15-LOX.

For `COc1ccc2c([nH]c3ccc(F)cc32)c1OCCN(C)C` [SS20308-0007-01, 2-(6-fluoro-2-methoxy-9H-carbazol-1-yloxy)-N,N-dimethylethanamine], the half-maximal inhibitory concentration (IC50) in assay [1] is 32.2 µM; in assay [2], 22 µM; in assay [3] (setting [4]) it was 8.64 µM.

On to `CN(C)CCCOc1cccc2c1-c1[nH]c3ccccc3c1CS2` [SS20308-0090-01, 3-(6,11-dihydrothiochromeno[4,3-b]indol-1-yloxy)-N,N-dimethylpropan-1-amine], for which the half-maximal inhibitory concentration (IC50) is 0.47 µM in assay [1], 0.43 µM in assay [2] and 0.69 µM in assay [3] (setting [5]).

For `CN(C)CCOc1c(NCc2ccccc2)ccc2c1[nH]c1ncccc12` [SS20308-0047-01, N-benzyl-8-(2-(dimethylamino)ethoxy)-9H-pyrido[2,3-b]indol-7-amine], the IC50 in assay [1] is 0.36 µM and 0.82 µM; in assay [2], 0.36 µM and 0.49 µM; in assay [3] (setting [4]), 1.13 µM and 1.93 µM.

Consider `c1ccc(NC2CCc3[nH]c4ccccc4c3C2)cc1` (stereo not drawn) [SS20308-0158-01, N-phenyl-2,3,4,9-tetrahydro-1H-carbazol-3-amine], for which the IC50 is 3.75 µM in assay [1], 3.16 µM in assay [2] and 1.55 µM in assay [3] (setting [5]).
